Data: ChEMBL document CHEMBL1201862, “PubChem BioAssay data set” (2004)
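Where inhibition never reached the appropriate level, the endpoint shown equals the highest concentration tested. Otherwise, values were interpolated linearly from a five-concentration, 48-hour dose response in 96-well plates. Here, GI50 denotes the concentration required for 50% inhibition of growth.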 Activity calls are given as the source filed them. Rule as the data show it: active = GI50 up to about 1.1 µM and inactive = higher.

Tests used:
Experiment in all cases: DTP human tumour cell line panel, 48 h
Malme-3M = tested on: Malme-3M
NCI-H23 = tested on: NCI-H23
TK-10 = tested on: TK-10
SK-MEL-2 = tested on: SK-MEL-2
EKVX = tested on: EKVX
HT-29 = tested on: HT-29
NCI-H522 = tested on: NCI-H522
SK-MEL-28 = tested on: SK-MEL-28
SN12C = tested on: SN12C
HOP-92 = tested on: HOP-92
SNB-75 = tested on: SNB-75
SK-OV-3 = tested on: SK-OV-3
HOP-62 = tested on: HOP-62
HOP-18 = tested on: HOP-18
DMS-273 = tested on: DMS-273
KM12 = tested on: KM12
SW-620 = tested on: SW-620
SNB-78 = tested on: SNB-78
LOX IMVI = tested on: LOX IMVI
NCI-H226 = tested on: NCI-H226
LXFL 529 = tested on: LXFL 529
A549 = tested on: A549
RXF 393 = tested on: RXF 393
HCT-116 = tested on: HCT-116
OVCAR-4 = tested on: OVCAR-4
CCRF-CEM = tested on: CCRF-CEM
MOLT-4 = tested on: MOLT-4
SR = tested on: SR
COLO 205 = tested on: COLO 205
DLD-1 = tested on: DLD-1
UACC-62 = tested on: UACC-62
SF-295 = tested on: SF-295
OVCAR-5 = tested on: OVCAR-5
NCI-H460 = tested on: NCI-H460
ACHN = tested on: ACHN
U-251 = tested on: U-251
CAKI-1 = tested on: CAKI-1
K562 = tested on: K562
SK-MEL-5 = tested on: SK-MEL-5
M14 = tested on: M14
RPMI-8226 = tested on: RPMI-8226
UO-31 = tested on: UO-31
M19-MEL = tested on: M19-MEL
OVCAR-8 = tested on: OVCAR-8
DMS-114 = tested on: DMS-114
HL-60 = tested on: HL-60
SF-268 = tested on: SF-268
786-0 = tested on: 786-0
UACC-257 = tested on: UACC-257
HCT-15 = tested on: HCT-15
IGROV-1 = tested on: IGROV-1
SF-539 = tested on: SF-539
OVCAR-3 = tested on: OVCAR-3
HCC 2998 = tested on: HCC 2998
MCF7 = tested on: MCF7
SNB-19 = tested on: SNB-19
MDA-MB-435 = tested on: MDA-MB-435
PC-3 = tested on: PC-3
NCI/ADR-RES = tested on: NCI/ADR-RES
Hs-578T = tested on: Hs-578T
MDA-N = tested on: MDA-N
A498 = tested on: A498
KM-20L2 = tested on: KM-20L2
DU-145 = tested on: DU-145
T47D = tested on: T47D
MDA-MB-231 = tested on: MDA-MB-231
BT-549 = tested on: BT-549

CC(C)C(=O)CC(c1ccc(Cl)cc1)N1N=C(C(C)C)CC1c1ccc(Cl)cc1 (stereo unspecified)
GI50 (Malme-3M): < 0.01 µM (active)
GI50 (NCI-H23): 22.6 µM (inactive)
GI50 (TK-10): > 100 µM (inactive)
GI50 (SK-MEL-2): > 51.5 µM (inactive)
GI50 (EKVX): 29.5 µM (inactive)
GI50 (HT-29): 14.6 µM (inactive)
GI50 (NCI-H522): < 0.01 µM (active)
GI50 (SK-MEL-28): 40.7 µM (inactive)
GI50 (SN12C): < 0.01 µM (active)
GI50 (HOP-92): > 86.3 µM (inactive)
GI50 (SNB-75): 86.9 µM (inactive)
GI50 (SK-OV-3): < 0.01 µM (active)
GI50 (HOP-62): 70 µM (inactive)
GI50 (HOP-18): < 0.01 µM (active)
GI50 (DMS-273): < 0.01 µM (active)
GI50 (KM12): 40.6 µM (inactive)
GI50 (SW-620): 37.2 µM (inactive)
GI50 (SNB-78): 5.97 µM (inactive)
GI50 (LOX IMVI): < 0.01 µM (active)
GI50 (NCI-H226): > 100 µM (inactive)
GI50 (LXFL 529): 98.4 µM (inactive)

N#CC(NNC(=O)Cc1ccccc1)c1ccc(O)cc1 (stereo unspecified)
GI50 (A549): > 100 µM (inactive)
GI50 (RXF 393): > 100 µM (inactive)
GI50 (Malme-3M): > 100 µM (inactive)
GI50 (HCT-116): > 100 µM (inactive)
GI50 (OVCAR-4): > 100 µM (inactive)
GI50 (NCI-H23): > 100 µM (inactive)
GI50 (CCRF-CEM): > 100 µM (inactive)
GI50 (MOLT-4): > 100 µM (inactive)
GI50 (TK-10): > 100 µM (inactive)
GI50 (SK-MEL-2): > 100 µM (inactive)
GI50 (SR): > 100 µM (inactive)
GI50 (COLO 205): > 100 µM (inactive)
GI50 (HT-29): > 100 µM (inactive)
GI50 (DLD-1): > 100 µM (inactive)
GI50 (UACC-62): > 100 µM (inactive)
GI50 (SF-295): > 100 µM (inactive)
GI50 (OVCAR-5): > 100 µM (inactive)
GI50 (NCI-H522): > 100 µM (inactive)
GI50 (SK-MEL-28): > 100 µM (inactive)
GI50 (NCI-H460): > 100 µM (inactive)
GI50 (SN12C): > 100 µM (inactive)
GI50 (ACHN): > 100 µM (inactive)
GI50 (U-251): > 100 µM (inactive)
GI50 (HOP-92): 85.9 µM (inactive)
GI50 (CAKI-1): > 100 µM (inactive)
GI50 (SNB-75): 28.2 µM (inactive)
GI50 (K562): > 100 µM (inactive)
GI50 (SK-OV-3): > 100 µM (inactive)
GI50 (SK-MEL-5): > 100 µM (inactive)
GI50 (M14): > 100 µM (inactive)
GI50 (HOP-62): > 100 µM (inactive)
GI50 (HOP-18): > 100 µM (inactive)
GI50 (RPMI-8226): > 100 µM (inactive)
GI50 (UO-31): > 100 µM (inactive)
GI50 (DMS-273): > 100 µM (inactive)
GI50 (M19-MEL): > 100 µM (inactive)
GI50 (KM12): > 100 µM (inactive)
GI50 (OVCAR-8): > 100 µM (inactive)
GI50 (DMS-114): > 100 µM (inactive)
GI50 (HL-60): > 100 µM (inactive)
GI50 (SW-620): > 100 µM (inactive)
GI50 (SF-268): > 100 µM (inactive)
GI50 (786-0): > 100 µM (inactive)
GI50 (LOX IMVI): > 100 µM (inactive)
GI50 (UACC-257): > 100 µM (inactive)
GI50 (NCI-H226): > 100 µM (inactive)
GI50 (HCT-15): > 100 µM
GI50 (IGROV-1): > 100 µM (inactive)
GI50 (SF-539): > 100 µM (inactive)
GI50 (LXFL 529): > 100 µM (inactive)

CCOc1ccccc1NC(=O)C(=O)C1C(=O)Nc2ccccc2[S+]1[O-] (stereo unspecified)
GI50 (A549): > 100 µM (inactive)
GI50 (OVCAR-3): > 100 µM (inactive)
GI50 (RXF 393): > 100 µM (inactive)
GI50 (Malme-3M): > 100 µM (inactive)
GI50 (HCT-116): > 100 µM (inactive)
GI50 (CCRF-CEM): > 100 µM (inactive)
GI50 (MOLT-4): > 100 µM (inactive)
GI50 (SK-MEL-2): > 100 µM (inactive)
GI50 (NCI-H522): > 100 µM (inactive)
GI50 (SK-MEL-28): > 100 µM (inactive)
GI50 (NCI-H460): > 100 µM (inactive)
GI50 (U-251): > 100 µM (inactive)
GI50 (K562): > 100 µM (inactive)
GI50 (SK-OV-3): > 100 µM (inactive)
GI50 (M14): > 100 µM (inactive)
GI50 (HOP-18): > 100 µM (inactive)
GI50 (RPMI-8226): > 100 µM (inactive)
GI50 (UO-31): > 100 µM (inactive)
GI50 (DMS-273): > 100 µM (inactive)
GI50 (DMS-114): > 100 µM (inactive)
GI50 (HL-60): > 100 µM (inactive)
GI50 (SF-268): > 100 µM (inactive)
GI50 (786-0): > 100 µM (inactive)
GI50 (SNB-78): > 100 µM (inactive)
GI50 (HCC 2998): > 100 µM (inactive)
GI50 (HCT-15): > 100 µM
GI50 (LXFL 529): > 100 µM (inactive)

Cc1c2cc[n+](C)cc2c(C)c2c1[nH]c1ccc(O)cc12 [ELLIPTINIUM ACETATE]
GI50 (A549): 0.447 µM (active)
GI50 (OVCAR-3): 23.9 µM (inactive)
GI50 (RXF 393): 62.5 µM (inactive)
GI50 (Malme-3M): 1.75 µM (inactive)
GI50 (HCT-116): 20.2 µM (inactive)
GI50 (OVCAR-4): 38.3 µM (inactive)
GI50 (NCI-H23): 8.91 µM (inactive)
GI50 (CCRF-CEM): 4.82 µM (inactive)
GI50 (MOLT-4): 0.241 µM (active)
GI50 (TK-10): 68.2 µM (inactive)
GI50 (MCF7): 8.75 µM (inactive)
GI50 (SK-MEL-2): 66.2 µM (inactive)
GI50 (EKVX): 38.2 µM (inactive)
GI50 (COLO 205): 21.8 µM (inactive)
GI50 (HT-29): 62.4 µM (inactive)
GI50 (DLD-1): 57.7 µM (inactive)
GI50 (SNB-19): 0.904 µM (active)
GI50 (UACC-62): 15.3 µM (inactive)
GI50 (MDA-MB-435): 48.9 µM (inactive)
GI50 (SF-295): 5.79 µM (inactive)
GI50 (OVCAR-5): 71.9 µM (inactive)
GI50 (NCI-H522): 4.31 µM (inactive)
GI50 (SK-MEL-28): 6.87 µM (inactive)
GI50 (PC-3): 28.4 µM (inactive)
GI50 (NCI-H460): 0.228 µM (active)
GI50 (SN12C): 0.532 µM (active)
GI50 (NCI/ADR-RES): 61.7 µM (inactive)
GI50 (Hs-578T): 0.387 µM (active)
GI50 (U-251): 1.32 µM (inactive)
GI50 (HOP-92): 19.3 µM (inactive)
GI50 (CAKI-1): 47.4 µM (inactive)
GI50 (SNB-75): 2.36 µM (inactive)
GI50 (MDA-N): 47.8 µM (inactive)
GI50 (A498): 52.5 µM (inactive)
GI50 (K562): 16.9 µM (inactive)
GI50 (SK-OV-3): 46.5 µM (inactive)
GI50 (SK-MEL-5): 7.89 µM (inactive)
GI50 (KM-20L2): > 100 µM (inactive)
GI50 (M14): 1.08 µM (active)
GI50 (HOP-62): 4.06 µM (inactive)
GI50 (DU-145): 5.46 µM (inactive)
GI50 (HOP-18): 14.3 µM (inactive)
GI50 (RPMI-8226): 36.7 µM (inactive)
GI50 (UO-31): 17.7 µM (inactive)
GI50 (DMS-273): 11.7 µM (inactive)
GI50 (M19-MEL): 4.7 µM (inactive)
GI50 (KM12): 2.53 µM (inactive)
GI50 (OVCAR-8): 11.6 µM (inactive)
GI50 (DMS-114): 5.97 µM (inactive)
GI50 (HL-60): 19 µM (inactive)
GI50 (SW-620): 14 µM (inactive)
GI50 (SF-268): 0.369 µM (active)
GI50 (SNB-78): 61.9 µM (inactive)
GI50 (T47D): 0.251 µM (active)
GI50 (MDA-MB-231): 50.9 µM (inactive)
GI50 (LOX IMVI): 31 µM (inactive)
GI50 (HCC 2998): 49.4 µM (inactive)
GI50 (UACC-257): 64 µM (inactive)
GI50 (NCI-H226): 1.12 µM (inactive)
GI50 (HCT-15): 50.4 µM
GI50 (IGROV-1): 16.6 µM (inactive)
GI50 (BT-549): 3.71 µM (inactive)
GI50 (SF-539): 12 µM (inactive)
